Test results: article PMC6102577, “Discovery of Pyrazolo[4,3-c]quinolines Derivatives as Potential Anti-Inflammatory Agents through Inhibiting of NO Production” (Molecules : A Journal of Synthetic Chemistry and Natural …, 2018)
Several values for one entry are separate records, joined by “and”; a condition that tells them apart may be missing. Equal values may be shown once. Read-outs that look alike come from different tables or passages of the source.

How the values were obtained:
[1] = test system: LPS-stimulated NO production in RAW 264.7 cells; assay: Inhibition of LPS-induced NO production (nitrite accumulation, Griess reaction) in RAW 264.7 cells; format: cell-based; details: for inhibition at 10 µM: compound 10 μM, read-out: Percent Inhibition of NO Production at 10 μM
Method: Treatment of Raw 264.7 cells with LPS (0.1 μg/mL) for 24 h induced NO production which were assessed by measuring the accumulation of nitrite, a stable metabolite of NO, in the media based on Griess reaction. […] However, compound 2a was also highly cytotoxic, in which the survival rate of RAW 264.7 cells was only 9% at a drug concentration of 10 μM. […] The position of substitution play an important role in which substitution at para-position is usually more favorable than its ortho- or meta- counterpart in the inhibitory activity on the LPS-induced NO production. […] Various substituted groups have been introduced on the para-position of the phenyl ring.
Raw 264.7 cells, purchased from Bioresource Collection and Research Center, Taiwan, were cultured in DMEM, supplemented with 5% fetal bovine serum, 100 units/mL of penicillin, 100 μg/mL of streptomycin, 2 mM L-glutamine, and 1 mM non-essential amino acids in a 10-cm plate at a density of 1 × 10^6 cells/mL, at 37 °C in a humidified atmosphere containing 5% CO2.
Nitrite was measured by adding 100 μL of the Griess reagent (1% sulfanilamide and 0.1% N-(1-naphthyl)ethylenediamine dihydrochloride in 5% phosphoric acid) to 100 μL of medium for 5 min. The optical density at 550 nm (OD550) was measured with a microplate reader. Concentrations were calculated by comparison with the OD550 of a standard solution of sodium nitrite prepared in culture medium.

RAW 264.7 cells = assay: Cell viability (XTT method) of RAW 264.7 cells; format: cell-based; details: compound 10 μM, 24 h, means ± S.D.
Method: To evaluate whether the suppressive effect of compounds on NO production is related to cell viability, Raw 264.7 cells were treated with LPS for 24 h, and washed with 500 μL of phosphate buffer solution (PBS) before resuspended in 1 mL of culture medium. Cell viability tests were run in parallel with NO production assays with an initial cell density of 5 × 10^3 cells/well in the presence or absence of test compounds at 10 μM or 0.1% DMSO as control.

[2] = Mus musculus, RAW264.7, 24 h, RAW 264.7 cells, LPS 0.1 μg/mL 24 h, means ± S.D., read-out: IC50 (inhibition of LPS-induced NO production)
[3] = Mus musculus, RAW264.7, training dataset, negative logarithm of IC50 values, read-out: Observed pIC50 (converted)
[4] = Mus musculus, RAW264.7, RAW 264.7 cells, LPS 0.1 μg/mL 24 h, means ± S.D.
[5] = Mus musculus, RAW264.7, test dataset, negative logarithm of IC50 values, read-out: Observed pIC50 (converted)

Structure (SMILES) | IC50 [1, 2] [nM] | IC50 [1, 3] [nM] | inhibition at 10 µM [1, 4] [%] | Cell Survival Rate at 10 μM (RAW 264.7 cells) | IC50 [1, 5] [nM] | IC50 ([1]; Mus musculus, RAW264.7, RAW 264.7 cells, LPS 0.1 μg/mL 24 h, means ± S.D., read-out: IC50 (inhibition of LPS-induced NO production)) [nM] | melting point [°C] | IC50 ([1]; RAW 264.7 cells, LPS 0.1 μg/mL 24 h, means ± S.D., read-out: IC50 (inhibition of LPS-induced NO production)) [nM]
Nc1n[nH]c2c1c(Nc1ccccc1)nc1ccccc12 [Compound 2a, 3-Amino-4-phenylamino-1H-pyrazolo[4,3-c]quinoline] | 390 ± 80 | 390 | 81.7 ± 0.99 | 9% and 9.09 ± 0.24% | – | – | – | –
Nc1n[nH]c2c1c(Nc1ccccc1O)nc1ccccc12 [Compound 2b] | 420 ± 110 | 420 | 103 ± 6.55 | 53.48 ± 1.53% | – | – | – | –
COc1ccccc1Nc1nc2ccccc2c2[nH]nc(N)c12 [Compound 2c, 3-Amino-4-(2-methoxyphenylamino)-1H-pyrazolo[4,3-c]quinoline] | – | – | 82.2 ± 6.49 | 47.31 ± 1.67% | 490 | 490 ± 140 | 210 to 211 | –
Nc1n[nH]c2c1c(Nc1cccc(O)c1)nc1ccccc12 [Compound 2d] | 770 ± 230 | – | 93.5 ± 7.57 | 81.70 ± 0.09% | 770 | – | – | –
COc1cccc(Nc2nc3ccccc3c3[nH]nc(N)c23)c1 [Compound 2e, 3-Amino-4-(3-methoxyphenylamino)-1H-pyrazolo[4,3-c]quinoline] | 770 | – | 101 ± 1.31 | 94.32 ± 0.49% | 720 | – | 184 to 186 | 720 ± 180
CC(=O)c1cccc(Nc2nc3ccccc3c3[nH]nc(N)c23)c1 [Compound 2f, 3-Amino-4-(3-acetylphenylamino)-1H-pyrazolo[4,3-c]quinoline] | 290 ± 60 | – | 99.1 ± 2.16 | 94.37 ± 0.36% | 290 | – | > 380 | –
Nc1n[nH]c2c1c(Nc1ccc(Cl)cc1)nc1ccccc12 [Compound 2g] | 320 ± 50 | 320 | 104 ± 6.71 | 81.61 ± 0.14% | – | – | – | –
Nc1n[nH]c2c1c(Nc1ccc(F)cc1)nc1ccccc12 [Compound 2h] | 410 ± 70 | – | 94.8 ± 9.47 | 89.99 ± 0.02% | 410 | – | – | –
Nc1ccc(Nc2nc3ccccc3c3[nH]nc(N)c23)cc1 [Compound 2j] | 920 ± 50 | 920 | 95.1 ± 3.75 | 90.26 ± 0.05% | – | – | – | –
COc1ccc(Nc2nc3ccccc3c3[nH]nc(N)c23)cc1 [Compound 2k] | 480 ± 140 | – | 90.8 ± 11.9 | 90.57 ± 0.03% | 480 | – | – | –
CC(=O)c1ccc(Nc2nc3ccccc3c3[nH]nc(N)c23)cc1 [Compound 2l] | 290 ± 80 | 290 | 102 ± 6.49 | 87.80 ± 0.11% | – | – | – | –
Nc1n[nH]c2c1c(Nc1ccc(C(F)(F)F)cc1)nc1ccccc12 [Compound 2n] | 360 ± 90 | 360 | 107 ± 2.48 | 69.14 ± 0.62% | – | – | – | –
Cc1ccc(Nc2nc3ccccc3c3[nH]nc(N)c23)cc1 [Compound 2o] | 470 ± 70 | 470 | 100 ± 3.02 | 84.53 ± 0.04% | – | – | – | –
Nc1n[nH]c2c1c(Nc1ccc([N+](=O)[O-])cc1)nc1ccccc12 [Compound 2p] | 400 ± 90 | 400 | 89.11 ± 0.86 | 90.86 ± 0.32% | – | – | – | –
CSc1ccc(Nc2nc3ccccc3c3[nH]nc(N)c23)cc1 [Compound 2q, 3-Amino-4-(4-methylthiophenylamino)-1H-pyrazolo[4,3-c]quinoline] | 360 ± 80 | 360 | 102 ± 7.01 | 89.62 ± 0.05% | – | – | 269 to 271 | –
COc1cc(Nc2nc3ccccc3c3[nH]nc(N)c23)cc(OC)c1OC [Compound 2r, 3-Amino-4-(3,4,5-trimethoxyphenylamino)-1H-pyrazolo[4,3-c]quinoline] | 350 ± 60 | 350 | 107 ± 2.58 | 85.24 ± 0.04% | – | – | 161 to 162 | –
